Where no end group is shown, it is not given here.
Tested on: murine B16 melanoma cells
Experiment: Anti-tumor effect: tumor weight at necropsy (Day 16) in mice bearing subcutaneous B16 melanoma
Assay type: in vivo, C57BL/6 mice
Conditions: for Tumor Weight (g) (Mean ± SD): group mean
Protocol: The toxic effects of the dosing regimens were also monitored. […] Meanwhile 9H10 was given in two groups via i.p. on Day 3, 6 and 9. […] Tumor volume and body weight were measured every three days, and tumor weights were measured on Day 16 at the end of the study.
On the day of tumor implantation, approximately 1×10^6 cells in 0.1 mL were subcutaneously injected on the right axillary area of each mouse. The day of tumor implantation was defined as Day 0.
On Day 3, the animals were randomly assigned into nine different weight-matched and tumor-size-matched groups. Dosing was started on Day 3 using the regimen according to Table 2.
From Day 1 to Day 15, mortality and moribundity were checked twice daily, the body weights were recorded once every 3 days, and tumors were measured using a caliper once every 3 days. At the end of the study (Day 16), the animals were euthanized by CO2 asphyxiation, and the tumors were excised and weighed.
The anti-tumor effect of the test article was further evaluated with tumor weight (TW) measured on day of necropsy (Day 16). The PI of TW was calculated using the equation below:
PITW(%)=100×(TW vehicle−TW drug treated)/TW vehicle
Inter-group comparison was performed in terms of tumor volume, tumor weight and body weight, using a student's t test. P values of less than 0.05 were considered to be statistically significant.

Row | Molecule | Tumor weight on Day 16 (animal F1) [g] | Tumor weight on Day 16 (animal F2) [g] | Tumor weight on Day 16 (animal F3) [g] | Tumor weight on Day 16 (animal F4) [g] | Tumor weight on Day 16 (animal F5) [g] | Tumor weight on Day 16 (animal M1) [g] | Tumor weight on Day 16 (animal M2) [g] | Tumor weight on Day 16 (animal M3) [g] | Tumor weight on Day 16 (animal M4) [g] | Tumor weight on Day 16 (animal M5) [g] | Tumor Weight (g) (Mean ± SD) | percent inhibition of tumor weight vs vehicle [%]
1 | CN(C)/N=N/c1[nH]cnc1C(N)=O [DTIC, Dacarbazine] | 1.40 | 0.43 | 0.47 | 0.68 | 0.56 | 1.80 | 1.80 | 0.83 | 2.30 | 1.90 | 1.22 ± 0.699 | 28.41
2 | CNC(=O)c1cc(Oc2ccc(NC(=O)Nc3ccc(Cl)c(C(F)(F)F)c3)cc2)ccn1 [Sorafenib] | 0.23 | 0.16 | 0.32 | 0.30 | 0.16 | 0.10 | 0.38 | 0.20 | 0.25 | 0.32 | 0.24 ± 0.088 | 85.76
3 | Thymosin Alpha-1 (Ac-SDAAVDTSSEITTKDLKEKKEVVEEAEN; ends and bridges not checked; UniProt P06454 2-29, looked up) [TA-1, 28 amino acid peptide, immunomodulator; test article (SciClone), 6 mg/kg s.c. daily] | 0.63 | 0.44 | 0.45 | 0.75 | 0.08 | 0.73 | 1.30 | 2.00 | 2.20 | 1.05 | 0.96 ± 0.688 | 43.35
